Measurements from US8642614B2, “Toll-like receptor modulators and uses thereof” (The Regents of the University of Colorado, a body corporate, priority 2009, dated 2014).
Read-outs that look alike come from different tables or passages of the source.

What was measured:
[1] = system: LPS-induced TLR4 activation; test: Real time microscopy of Akt1-GFP translocation (TLR4 signaling) in RAW264.7 macrophages; format: cell-based, mouse; details: RAW 264.7 Akt1-GFP, LPS 2 ng/ml
Procedure: Lipopolysaccharide (LPS)-induced TLR4 activation initiates the phosphoinositide 3-kinase (PI3K) cascade, triggering translocation of Akt1 to the plasma membrane in murine macrophages. RAW 264.7 cells transfected with an Akt1-GFP reporter13 were treated with drug then activated with LPS. In the absence of LPS, Akt1-GFP was uniformly diffused throughout the cytosol as observed by fluorescence microscopy. Addition of LPS (2 ng/ml) caused a rapid translocation of Akt1-GFP to the plasma membrane, lowering the Akt1-GFP concentration in the cytosol. Doses of Compound A-1 as low as 2 μM and Compound A-2 as low as 200 nM substantially abolished LPS-induced activation of the signaling pathway.
FIGS. 3A and 3B. A small dose of chemotactic peptide C5a (25 ng/mL) that stimulates PI3K15 was able to rescue the Akt signaling inhibited by either compound. […]
TLR4 signaling leads to the simultaneous activation of three parallel intra-cellular signaling pathways. […] Baseline fluorescence was captured for 5 frames, following which vehicle or antagonist was added in 200 μl. Imaging continued for a further 20 frames at which time LPS or test agonist (200 μl) were applied and monitored for a further 20 frames. […] GFP-Akt1 cytosolic clearance was quantified using ImageJ and expressed as a normalized change in cytoplasmic fluorescence over time.

[2] = rat, in vivo
[3] = system: HEK293 cells stably transfected with TLR4; test: Cell viability assay (Trypan Blue); format: cell-based, human; details: tested concentrations, FIG. 4
Procedure: Human embryonic kidney 293 (HEK293) cells were stably transfected with TLR4 and necessary assembly and signalling proteins (MD2, CD-14, LPSBP, etc.). Cells were cultured in DMEM supplemented with 10% FBS, penicillin (100 U/ml), streptomycin ([…]), L-glutamine (2 mM), 0.1 mg/ml normocin (InvivoGen, CA, USA) and 1×HEK Blue selection reagent (InvivoGen, CA, USA). Cells were implanted in 6 cm plates and grown to 65-75% confluency by incubating at 37° C., prior to drug treatment. On the day of treatment, media was removed from the 6 cm plate and replaced with cerebrospinal fluid (CSF) buffer supplemented with drug treatment. After 24 h incubation at 37° C., CSF was removed and cells were agitated with 0.05% Trypsin plus 0.2 g/l EDTA (Invitrogen, CA, USA) and re-suspended in fresh DMEM supplemented media. After re-suspension, a […] was taken from each 6 cm plate, mixed gently with 100 μl 0.4% Trypan Blue (Sigma, Mo., USA) and allowed to sit for 5 min. The ratio of blue stained cells to total cells was then quantified using a Bright Line 0.1 mm depth hemocytometer (VWR, PA, USA) under a Nikon TMS light microscope (Nikon Instrumentals, CA USA).

[4] = Hargreaves test (radiant heat withdrawal), intrathecal injection with or without morphine; details: rat
TLR4 [5] = molecular target: T1, TLR4 (Homo sapiens, UniProt O00206); test: Secreted alkaline phosphatase (SEAP) reporter gene assay in HEK293 cells transfected with TLR4; format: cell-based; details: HEK293, SEAP reporter downstream of NF-κB promoter; dose-dependent manner
T1 sequence (O00206 24-839): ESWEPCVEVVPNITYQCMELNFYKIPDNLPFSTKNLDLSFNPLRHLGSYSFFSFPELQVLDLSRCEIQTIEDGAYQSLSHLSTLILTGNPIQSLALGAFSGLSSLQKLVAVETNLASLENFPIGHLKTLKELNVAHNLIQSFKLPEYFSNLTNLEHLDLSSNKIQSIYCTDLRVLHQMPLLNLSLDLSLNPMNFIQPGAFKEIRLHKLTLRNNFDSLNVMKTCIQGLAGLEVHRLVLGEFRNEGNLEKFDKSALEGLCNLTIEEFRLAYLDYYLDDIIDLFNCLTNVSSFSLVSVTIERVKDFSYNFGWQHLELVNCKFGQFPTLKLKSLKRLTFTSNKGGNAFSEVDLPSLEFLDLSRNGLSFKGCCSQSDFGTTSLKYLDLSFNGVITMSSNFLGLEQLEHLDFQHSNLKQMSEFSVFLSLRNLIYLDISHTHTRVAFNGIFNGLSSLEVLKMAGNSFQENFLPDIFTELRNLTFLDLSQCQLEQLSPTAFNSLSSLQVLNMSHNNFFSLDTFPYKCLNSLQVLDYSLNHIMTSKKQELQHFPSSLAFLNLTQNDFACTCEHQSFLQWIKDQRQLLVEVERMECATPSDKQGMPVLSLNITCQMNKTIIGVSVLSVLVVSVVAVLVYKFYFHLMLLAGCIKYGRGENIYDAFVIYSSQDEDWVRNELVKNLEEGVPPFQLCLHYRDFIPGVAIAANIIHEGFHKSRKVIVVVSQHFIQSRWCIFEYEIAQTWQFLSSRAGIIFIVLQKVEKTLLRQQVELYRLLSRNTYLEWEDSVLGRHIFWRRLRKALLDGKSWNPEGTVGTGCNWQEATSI
Procedure: FIGS. 3A and 3B. A small dose of chemotactic peptide C5a (25 ng/mL) that stimulates PI3K15 was able to rescue the Akt signaling inhibited by either compound. Global translocation of Akt1-GFP to the plasma membrane was observed, confirming that these cells retained normal Akt signaling transduction functions. Akt1 is directly downstream of TLR4 in the signal transduction pathway. […] Murine macrophages express a variety of TLRs and immune receptors. […] The activity of Compound A-1 was further confirmed in an established TLR4 assay in HEK293 cells, where a secreted alkaline phosphatase reporter gene is located downstream from the NF-κB promoter. Compound A-1 was effective at blocking the downstream proinflammatory effectors of TLR4 in a dose-dependent manner.
Materials for the SEAP assay were obtained from Applied Biosystems (CA, USA) and utilized according to the manufacturer's specifications. Human embryonic kidney 293 (HEK293) cells stably transfected with TLR4 and a secreted alkaline phosphatase (SEAP) reporter gene was obtained from Invivogen (CA, USA). […]
A sample of CSF buffer (15 μL) from each well was collected and transferred to an opaque white 96 well plate (Microfluor 2, Thermo Scientific MA, USA). […] After 20 min, the luminescence of each well was measured using a plate reader (Beckman Coulter, DTX 880, CA, USA) with multimode analysis software.

TLR4 [6] = molecular target: T1, TLR4; test: Whole blood model of inflammation (cytokine secretion after LPS or E. coli); format: cell-based
Procedure: Test of TLR4 inhibition by compounds of the invention with respect to impact on secretion of cytokines IL-6, IL-8, (TNFα) and IL1β in the whole blood model of inflammation was performed using the procedure described by Mollnes et al. (Blood, 2002, 100, 1869-1877) using (i) LPS to compare the two variants of 2126-HCl in a restricted set-up, (ii) gram negative bacteria to initiate innate immune response that involves both TLR4/MD2, TLR2, as well as the complement system (compare to anti-CD14 and compstatin).

TLR4 [7] = molecular target: TLR4 (Homo sapiens, UniProt O00206+Q9Y6Y9)
Chain of TLR4 (Homo sapiens, UniProt O00206+Q9Y6Y9) (O00206 24-839, species assumed): as the sequence (O00206 24-839) above
Chain of TLR4 (Homo sapiens, UniProt O00206+Q9Y6Y9) (Q9Y6Y9 19-160, species assumed): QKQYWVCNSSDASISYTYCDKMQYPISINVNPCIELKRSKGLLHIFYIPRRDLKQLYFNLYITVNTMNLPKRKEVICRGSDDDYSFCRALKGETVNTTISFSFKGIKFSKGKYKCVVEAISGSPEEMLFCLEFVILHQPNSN

[8] = clinically employed (−)-opioids

CCOc1ccc(OCC(O)CN(C)Cc2c(C)nn(Cc3ccccc3Cl)c2C)cc1 (stereo not drawn) [Compound A-1, 1-(((1-(2-chlorobenzyl)-3,5-dimethyl-1H-pyrazol-4-yl)methyl)(methyl)amino)-3-(4-ethoxyphenoxy)propan-2-ol]
dose that substantially abolished LPS-induced activation of the signaling pathway [1]: ≤ 2 µM | behavioral effects of compound alone [2]: no detectable behavioral effects | cellular toxicity [3]: neither Compound A-1 nor Compound A-2 showed any significant cellular toxicity | potentiation of the analgesic effects of morphine ([4]; with morphine, maximal analgesia recordable (10 s cut-off) across two hours): significantly potentiated | effect on pain responsivity in the absence of co-administered morphine ([4]; without morphine): no effect | blocking the downstream proinflammatory effectors of TLR4 (TLR4 [5]): effective

CC[C@H](C)[C@H](N)C(=O)N[C@H]1CSSC[C@@H](C(=O)N[C@H](C(N)=O)[C@@H](C)O)NC(=O)[C@H](CCCN=C(N)N)NC(=O)[C@H](Cc2cnc[nH]2)NC(=O)[C@H](Cc2cnc[nH]2)NC(=O)CNC(=O)[C@H](Cc2c[nH]c3ccccc23)NC(=O)[C@H](CC(=O)O)NC(=O)[C@H](CCC(N)=O)NC(=O)[C@H](C(C)C)NC(=O)[C@H](C(C)C)NC1=O [compstatin]
effect of compstatin on the inhibition of Il-6 levels by anti-CD14 and 2126-HCl (TLR4 [6]; E. coli as activator): increased the inhibitory effect | reduction of Il-1β plasma levels (TLR4 [6]; E. coli stimulation, 2126-HCl 500 μM, compstatin 25 μM): about 50% | cytokine release in response to E. coli on addition of compstatin (TLR4 [6]; E. coli, added to anti-CD14 or 2126-HCl): further decreased | cytokine specificity (TLR4 [6]; compstatin itself): specific for Il8 and Il-1β | effect on Il-6 secretion / plasma levels (TLR4 [6]; whole blood): little impact

CCC(=O)C(CC(C)N(C)C)(c1ccccc1)c1ccccc1 (stereo not drawn) [methadone]
TLR4 agonism (TLR4 [7]; [8]): TLR4 agonists

CN1CC[C@]23c4c5ccc(O)c4O[C@H]2[C@@H](O)C=C[C@H]3[C@H]1C5 [morphine]
TLR4 agonism (TLR4 [7]): TLR4 agonists

COc1ccc2c3c1O[C@H]1C(=O)CC[C@@]4(O)[C@@H](C2)N(C)CC[C@]314 [oxycodone]
TLR4 agonism (TLR4 [7]; [8]): TLR4 agonists

CCOC(=O)C1(c2ccccc2)CCN(C)CC1 [pethadine/meperidine]
TLR4 agonism (TLR4 [7]; [8]): TLR4 agonists
